Our source for the IC50 values is patent US11242334B2, “Heterocyclic compounds as kinase inhibitors, compositions comprising the heterocyclic compound, and methods of use thereof” (JS INNOPHARM (SHANGHAI) LTD, priority 2017, dated 2022).

Each structure is given as a SMILES string. A value given as a limit tells only on which side of the number the result lay.

Broadly, the IC50 is the midpoint of a concentration-inhibition curve. Lower therefore signals greater potency.

One experiment deals with T1, human ERK2 (Homo sapiens, UniProt P28482).
T1 construct: recombinantly expressed as GST-tagged full-length protein purified from E. coli; GST; purchased Invitrogen PV3311; host or cells: E. coli
Put plainly: LanthaScreen TR-FRET enzymatic assay, ERK2. The following applies: IC50 values of ERK2 biochemical activity; 5 μM ATP, 400 nM ATF2-GFP substrate. Put shortly: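 IC50 values were fitted from percent of DMSO control using a 520/495 nm TR-FRET ratio with terbium anti-pATF2 (pThr71), read after an EDTA stop. The kinase reaction lasted one hour at room temperature, following 15-min compound pre-treatment. It contained 5 μM ATP, 400 nM ATF2-GFP substrate and 20 ng/ml in vitro-activated GST-ERK2.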

The subject of the next experiment is Colo205 cell line. The experiment can be described thus: Colo205 cell proliferation assay (MTT assay, WST-8 readout). The format is cell-based. The following applies: Homo sapiens; IC50 values of growth inhibition in Colo 205 cells; 72 hours. An outline of the steps: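 Growth-inhibition IC50 was derived from WST-8 absorbance at 450 nm (2 h development) after 72 h compound exposure at 37° C. Exposure used final 50 μM–0.005 μM compound in 0.5% DMSO. Colo205 cells had been plated at 5,000/well in RPMI-1640 plus 10% FBS and allowed 24 h to attach.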
A general note: Tetrazolium dyes change colour on reduction, which living cells bring about.

T1 sequence (P28482 whole entry): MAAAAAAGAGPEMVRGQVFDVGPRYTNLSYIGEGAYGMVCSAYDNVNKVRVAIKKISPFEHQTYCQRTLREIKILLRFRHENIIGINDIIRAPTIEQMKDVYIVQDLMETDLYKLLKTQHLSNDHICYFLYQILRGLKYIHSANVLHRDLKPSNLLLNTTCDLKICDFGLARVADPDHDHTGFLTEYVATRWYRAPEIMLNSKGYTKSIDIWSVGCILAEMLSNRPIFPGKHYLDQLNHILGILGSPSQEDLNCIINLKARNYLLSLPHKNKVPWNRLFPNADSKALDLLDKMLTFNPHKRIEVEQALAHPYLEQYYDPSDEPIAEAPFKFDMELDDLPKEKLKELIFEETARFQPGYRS

Regarding `Cc1cc(-c2n[nH]c3ccc(-c4ccn(Cc5cc(F)cc(Br)c5)c(=O)c4)cc23)ccn1` [Example 8, 1-(3-bromo-5-fluorobenzyl)-4-(3-(2-methylpyridin-4-yl)-1H-indazol-5-yl)pyridin-2(1H)-one], the concentration for half-maximal inhibition (IC50) is below 10 nM on human ERK2 and 500 to 1000 nM in the experiment with Colo205 cell line.
For `CCOc1ccc(-c2n[nH]c3ccc(-c4ccn([C@H](CO)c5cc(F)cc(Br)c5)c(=O)c4)cc23)cn1` [Example 102, (S)-1-(1-(3-bromo-5-fluorophenyl)-2-hydroxyethyl)-4-(3-(6-ethoxypyridin-3-yl)-1H-indazol-5-yl)pyridin-2(1H)-one] the same measures were below 10 nM and at most 500 nM.
For `Cn1cc(-c2n[nH]c3ccc(-c4ccn(Cc5cccc(C(F)(F)F)c5)c(=O)c4)cc23)cn1` [Example 91, 4-(3-(1-methyl-1H-pyrazol-4-yl)-1H-indazol-5-yl)-1-(3-(trifluoromethyl)benzyl)pyridin-2(1H)-one], in that order: below 10 nM and 500 to 1000 nM.
For `Cc1cc(-c2n[nH]c3ncc(-c4ccn([C@H](CO)c5ccc(Cl)c(F)c5)c(=O)c4)cc23)ccn1` [Example 24, (S)-1-(1-(4-chloro-3-fluorophenyl)-2-hydroxyethyl)-4-(3-(2-methylpyridin-4-yl)-1H-pyrazolo[3,4-b]pyridin-5-yl)pyridin-2(1H)-one] the same measures were 50 to 100 nM and 1000 to 5000 nM.
Regarding `Cc1cc(-c2n[nH]c3ccc(-c4ccn(Cc5ccc(F)c(OC(F)(F)F)c5)c(=O)c4)cc23)ccn1` [Example 78, 1-(4-fluoro-3-(trifluoromethoxy)benzyl)-4-(3-(2-methylpyridin-4-yl)-1H-indazol-5-yl)pyridin-2(1H)-one], the half-inhibitory concentration (IC50) against human ERK2 fell in the range of 10 to 50 nM; in the experiment on Colo205 cell line, 1000 to 5000 nM.
For `Cc1cc(-c2n[nH]c3ccc(-c4ccn(C(C)c5cc(F)cc(Br)c5)c(=O)c4)cc23)ccn1` (stereo not shown) [Example 74, 1-(1-(3-bromo-5-fluorophenyl)ethyl)-4-(3-(2-methylpyridin-4-yl)-1H-indazol-5-yl)pyridin-2(1H)-one], in that order: below 10 nM and 500 to 1000 nM.
For `CC(C)Oc1cc(-c2n[nH]c3ccc(-c4ccn(Cc5cc(F)cc(Br)c5)c(=O)c4)cc23)ccn1` [Example 10, 1-(3-bromo-5-fluorobenzyl)-4-(3-(2-isopropoxypyridin-4-yl)-1H-indazol-5-yl)pyridin-2(1H)-one], in that order: 10 to 50 nM and above 5000 nM.
On to `CCc1n[nH]c2ccc(-c3ccn([C@H](CO)c4cccc(Cl)c4)c(=O)c3)cc12` [Example 23, (S)-1-(1-(3-chlorophenyl)-2-hydroxyethyl)-4-(3-ethyl-1H-indazol-5-yl)pyridin-2(1H)-one], for which the IC50 at human ERK2 was in the range of 50 to 100 nM; with Colo205 cell line, 1000 to 5000 nM.
For `Cc1cc(-c2n[nH]c3ccc(-c4ccn([C@H](CO)c5ccc(F)c(Br)c5)c(=O)c4)cc23)ccn1` [Example 36, (S)-1-(1-(3-bromo-4-fluorophenyl)-2-hydroxyethyl)-4-(3-(2-methylpyridin-4-yl)-1H-indazol-5-yl)pyridin-2(1H)-one], in that order: below 10 nM and at most 500 nM.
For `Cn1cc(-c2n[nH]c3ccc(-c4ccn([C@H](CO)c5cc(F)cc(Br)c5)c(=O)c4)cc23)ccc1=O` [Example 120, (S)-1-(1-(3-bromo-5-fluorophenyl)-2-hydroxyethyl)-4-(3-(1-methyl-6-oxo-1,6-dihydropyridin-3-yl)-1H-indazol-5-yl)pyridin-2(1H)-one], in that order: below 10 nM and 1000 to 5000 nM.
For `O=c1cc(-c2ccc3[nH]nc([C@H]4CC[C@@H](O)CC4)c3c2)ccn1Cc1ccnc(C(F)(F)F)c1` [Example 149, 4-(3-((1s,4s)-4-hydroxycyclohexyl)-1H-indazol-5-yl)-1-((2-(trifluoromethyl)pyridin-4-yl)methyl)pyridin-2(1H)-one] the same measures were 10 to 50 nM and above 5000 nM.
With `O=c1cc(-c2ccc3[nH]nc(-c4ccc(OC5CC5)nc4)c3c2)ccn1[C@H](CO)c1cc(F)cc(Br)c1` [Example 118, (S)-1-(1-(3-bromo-5-fluorophenyl)-2-hydroxyethyl)-4-(3-(6-cyclopropoxypyridin-3-yl)-1H-indazol-5-yl)pyridin-2(1H)-one], the IC50 on human ERK2 is below 10 nM; in the experiment with Colo205 cell line it was at most 500 nM.
For `CC(C)Oc1ccc(-c2n[nH]c3ccc(-c4ccn([C@H](CO)c5cccc(Br)c5)c(=O)c4)cc23)cn1` [Example 44, (S)-1-(1-(3-bromophenyl)-2-hydroxyethyl)-4-(3-(6-isopropoxypyridin-3-yl)-1H-indazol-5-yl)pyridin-2(1H)-one], the concentration for half-maximal inhibition (IC50) at human ERK2 is below 10 nM; with Colo205 cell line, 500 to 1000 nM.
For `CNCC(c1cccc(Cl)c1)n1ccc(-c2ccc3[nH]nc(-c4cnn(C)c4)c3c2)cc1=O` (stereo not shown) [Example 98, 1-(1-(3-chlorophenyl)-2-(methylamino)ethyl)-4-(3-(1-methyl-1H-pyrazol-4-yl)-1H-indazol-5-yl)pyridin-2(1H)-one], the concentration for half-maximal inhibition (IC50) was below 10 nM against human ERK2 and at most 500 nM in the experiment on Colo205 cell line.
For `O=c1cc(-c2ccc3[nH]nc(C4CCOCC4)c3c2)ccn1Cc1ccnc(C(F)(F)F)c1` [Example 147, 4-(3-(tetrahydro-2H-pyran-4-yl)-1H-indazol-5-yl)-1-((2-(trifluoromethyl)pyridin-4-yl)methyl)pyriidn-2(1H)-one], in that order: below 10 nM and at most 500 nM.
Consider `Cc1cc(-c2n[nH]c3ccc(-c4ccn(Cc5cccc(OC(F)(F)F)c5)c(=O)c4)cc23)ccn1` [Example 67, 4-(3-(2-methylpyridin-4-yl)-1H-indazol-5-yl)-1-(3-(trifluoromethoxy)benzyl)pyridin-2(1H)-one], for which the half-maximal inhibitory concentration (IC50) against human ERK2 is below 10 nM; in the experiment on Colo205 cell line, 1000 to 5000 nM.
For `Cc1cc(-c2n[nH]c3ccc(-c4ccn([C@H](CO)c5ccc(F)c(Cl)c5)c(=O)c4)cc23)ccn1` [Example 30, (S)-1-(1-(3-chloro-4-fluorophenyl)-2-hydroxyethyl)-4-(3-(2-methylpyridin-4-yl)-1H-indazol-5-yl)pyridin-2(1H)-one] the same measures were below 10 nM and at most 500 nM.
As to `O=c1cc(-c2ccc3[nH]nc([C@H]4CC[C@H](O)CC4)c3c2)ccn1Cc1ccnc(C(F)(F)F)c1` [Example 148, 4-(3-((1r,4r)-4-hydroxycyclohexyl)-1H-indazol-5-yl)-1-((2-(trifluoromethyl)pyridin-4-yl)methyl)pyridin-2(1H)-one], the IC50 was below 10 nM on human ERK2 and 1000 to 5000 nM in the experiment with Colo205 cell line.
For `Cc1cc(-c2n[nH]c3ccc(-c4ccn(Cc5ccc(F)c(Br)c5)c(=O)c4)cc23)ccn1` [Example 56, 1-(3-bromo-4-fluorobenzyl)-4-(3-(2-methylpyridin-4-yl)-1H-indazol-5-yl)pyridin-2(1H)-one] the same measures were below 10 nM and 500 to 1000 nM.
For `CC(c1cc(F)cc(Br)c1)n1ccc(-c2ccc3[nH]nc(-c4cnn(C)c4)c3c2)cc1=O` (stereo not shown) [Example 96, 1-(1-(3-bromo-5-fluorophenyl)ethyl)-4-(3-(1-methyl-1H-pyrazol-4-yl)-1H-indazol-5-yl)pyridin-2(1H)-one], in that order: below 10 nM and 500 to 1000 nM.
Take `Cn1cc(-c2n[nH]c3ccc(-c4ccn([C@H](CO)c5cc(F)cc(Br)c5)c(=O)c4)cc23)cn1` [Example 39, (S)-1-(1-(3-bromo-5-fluorophenyl)-2-hydroxyethyl)-4-(3-(1-methyl-1H-pyrazol-4-yl)-1H-indazol-5-yl)pyridin-2(1H)-one]: the IC50 was below 10 nM against human ERK2 and at most 500 nM with Colo205 cell line.
For `Cc1cc(-c2n[nH]c3ccc(-c4ccn([C@H](CO)c5ccc(Cl)cc5)c(=O)c4)cc23)ccn1` [Example 32, (S)-1-(1-(4-chlorophenyl)-2-hydroxyethyl)-4-(3-(2-methylpyridin-4-yl)-1H-indazol-5-yl)pyridin-2(1H)-one], in that order: below 10 nM and at most 500 nM.
For `Cc1nn(C)cc1-c1n[nH]c2ccc(-c3ccn([C@H](CO)c4cccc(Cl)c4)c(=O)c3)cc12` [Example 16, (S)-1-(1-(3-chlorophenyl)-2-hydroxyethyl)-4-(3-(1,3-dimethyl-1H-pyrazol-4-yl)-1H-indazol-5-yl)pyridin-2(1H)-one], in that order: below 10 nM and 500 to 1000 nM.
With `Cc1cc(-c2n[nH]c3ccc(-c4cc(C)n(Cc5ccnc(C(F)(F)F)c5)c(=O)c4)cc23)ccn1` [Example 143, 6-methyl-4-(3-(2-methylpyridin-4-yl)-1H-indazol-5-yl)-1-((2-(trifluoromethyl)pyridin-4-yl)methyl)pyridin-2(1H)-one], the half-maximal inhibitory concentration (IC50) on human ERK2 is below 10 nM; with Colo205 cell line, 500 to 1000 nM.
For `Cn1cc(-c2n[nH]c3ccc(-c4ccn(Cc5ccnc(C(F)(F)F)c5)c(=O)c4)cc23)cn1` [Example 95, 4-(3-(1-methyl-1H-pyrazol-4-yl)-1H-indazol-5-yl)-1-((2-(trifluoromethyl)pyridin-4-yl)methyl)pyridin-2(1H)-one] the same measures were below 10 nM and 1000 to 5000 nM.
For `Cc1cc(-c2n[nH]c3ccc(-c4ccn(Cc5cccc(Br)c5F)c(=O)c4)cc23)ccn1` [Example 75, 1-(3-bromo-2-fluorobenzyl)-4-(3-(2-methylpyridin-4-yl)-1H-indazol-5-yl)pyridin-2(1H)-one], in that order: below 10 nM and 500 to 1000 nM.
